From patent publication US10729628B2, “Tyrosinase inhibitors” (Conopco, Inc., priority 2015, dated 2020)

How the values were obtained:
[1] = biological target: T1, human Tyrosinase (in the form of melanocytic extract) (Homo sapiens, UniProt P14679); test: Tyrosinase assay by oxidation of DOPA, human tyrosinase (melanocytic extract); type: biochemical; conditions: for OD475 nm (HME) / inhibition at 100 µM / inhibition at 1000 µM / inhibition at 10 µM / % Inhibition (HME): 37° C., 45 minutes; for OD475 nm (HME): background-corrected, uninhibited enzyme control 0.141; for inhibition at 100 µM / inhibition at 1000 µM / inhibition at 10 µM: read-out: % Inhibition (HME); for inhibit the activity of tyrosinase: summary in words, at least one of human or mushroom tyrosinase, inhibitor = colour inhibited by more than 10% of control
T1 construct: 2.5 mg/ml human melanocytic lysate OR; endogenous in cells; host or cells: human melanocytes (lysate/extract)
T1 sequence (P14679 19-529): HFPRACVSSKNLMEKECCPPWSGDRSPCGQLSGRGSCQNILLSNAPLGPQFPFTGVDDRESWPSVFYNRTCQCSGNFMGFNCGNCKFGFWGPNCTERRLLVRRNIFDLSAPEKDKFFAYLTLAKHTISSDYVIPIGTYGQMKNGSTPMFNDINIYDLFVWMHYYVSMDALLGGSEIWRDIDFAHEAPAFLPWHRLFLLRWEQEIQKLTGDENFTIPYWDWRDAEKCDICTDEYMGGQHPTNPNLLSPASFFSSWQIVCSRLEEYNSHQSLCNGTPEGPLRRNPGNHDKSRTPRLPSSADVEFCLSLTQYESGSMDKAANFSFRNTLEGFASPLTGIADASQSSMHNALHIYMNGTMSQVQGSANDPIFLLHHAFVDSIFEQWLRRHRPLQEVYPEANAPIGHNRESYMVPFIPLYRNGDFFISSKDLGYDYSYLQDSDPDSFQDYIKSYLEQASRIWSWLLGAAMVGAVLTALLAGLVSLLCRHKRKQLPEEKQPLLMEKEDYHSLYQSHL
Protocol: The (tyrosinase) inhibitory activity of a, b, c and d was measured by oxidation of DOPA. Each crown ether was tested against human Tyrosinase (in the form of melanocytic extract) and commercial (Worthington, USA) mushroom tyrosinase (MT), using the DOPA oxidation assay. Details of the assay mix are included in table 2. […] Assay examined the change (Optical Density) OD475 nm at 37° C., after 45 minutes reaction in a standard 96-well plate. All ON475 nm were corrected by subtracting the background OD475 nm value of the negative control sample lacking enzyme in the assay mix. […] The background effect of 10% DMSO on tyrosinase activity was also examined for calculation purposes (i.e. the ‘U’ sample).

mushroom tyrosinase (MT) = test: Tyrosinase assay by oxidation of DOPA, mushroom tyrosinase; type: biochemical; conditions: 37° C., 45 minutes; for OD475 nm (MT): background-corrected, uninhibited enzyme control 0.17
Protocol: The (tyrosinase) inhibitory activity of a, b, c and d was measured by oxidation of DOPA. Each crown ether was tested against human Tyrosinase (in the form of melanocytic extract) and commercial (Worthington, USA) mushroom tyrosinase (MT), using the DOPA oxidation assay. Details of the assay mix are included in table 2. [table] Assay examined the change (Optical Density) OD475 nm at 37° C., after 45 minutes reaction in a standard 96-well plate. All ON475 nm were corrected by subtracting the background OD475 nm value of the negative control sample lacking enzyme in the assay mix. […] The background effect of 10% DMSO on tyrosinase activity was also examined for calculation purposes (i.e. the ‘U’ sample).

| OD475 nm (HME) ([1]; 0.1 mM test compound) | inhibition at 100 µM ([1]; 0.1 mM test compound) [%] | OD475 nm (HME) ([1]; 1 mM test compound) | inhibition at 1000 µM ([1]; 1 mM test compound) [%] | % Inhibition (MT) (mushroom tyrosinase (MT); 0.1 mM test compound) [%] | OD475 nm (MT) (mushroom tyrosinase (MT); 0.1 mM test compound) | % Inhibition (MT) (mushroom tyrosinase (MT); 1 mM test compound) [%] | OD475 nm (MT) (mushroom tyrosinase (MT); 1 mM test compound) | OD475 nm (HME) ([1]; 0.01 mM test compound) | inhibition at 10 µM ([1]; 0.01 mM test compound) [%] | % Inhibition (HME) ([1]; 1 mM test compound) | % Inhibition (MT) (mushroom tyrosinase (MT); 0.01 mM test compound) [%] | OD475 nm (MT) (mushroom tyrosinase (MT); 0.01 mM test compound) | % Inhibition (HME) ([1]; 0.01 mM test compound) | % Inhibition (MT) (mushroom tyrosinase (MT); 0.25 mM test compound) [%] | OD475 nm (MT) (mushroom tyrosinase (MT); 0.25 mM test compound) | % Inhibition (MT) (mushroom tyrosinase (MT); 0.5 mM test compound) [%] | OD475 nm (MT) (mushroom tyrosinase (MT); 0.5 mM test compound) | Compound | inhibit the activity of tyrosinase [1] |
| --- | --- | --- | --- | --- | --- | --- | --- | --- | --- | --- | --- | --- | --- | --- | --- | --- | --- | --- | --- |
| 0.126 | 11 | 0.029 | 79 | 25 | 0.128 | 60 | 0.068 | – | – | – | – | – | – | – | – | – | – | O=C(O)c1ccc2c(c1)OCCOCCOCCO2 [Compound a] | inhibit the activity of at least one of human or mushroom tyrosinase |
| – | – | 0.162 | – | – | – | 28 | 0.122 | 0.125 | 12 | No | 6 | 0.160 | – | – | – | – | – | O=C(NC1CCCCC1)N(C(=O)c1ccc2c(c1)OCCOCCOCCO2)C1CCCCC1 [Compound b] | inhibit the activity of at least one of human or mushroom tyrosinase |
| 0.094 | 33 | 0.027 | 81 | 5 | 0.162 | 49 | 0.087 | 0.092 | 35 | – | 9 | 0.156 | – | – | – | – | – | O=C(O)c1ccc2c(c1)OCCOCCOCCOc1ccc(C(=O)O)cc1OCCOCCOCCO2 [Compound c] | inhibit the activity of at least one of human or mushroom tyrosinase |
| 0.134 | 5 | 0.110 | 23 | 58 | 0.071 | 69 | 0.053 | 0.144 | – | – | 19 | 0.137 | No | – | – | – | – | COC(=O)C(C)(C)NC(=O)C(CC(C)C)NC(=O)C(C)NC(=O)c1ccc2c(c1)OCCOCCOCCOc1ccc(C(=O)NC(C)C(=O)NC(CC(C)C)C(=O)NC(C)(C)C(=O)OC)cc1OCCOCCOCCO2 (centres unmarked) [Compound d] | inhibit the activity of at least one of human or mushroom tyrosinase |
| – | – | – | – | 23 | 0.131 | – | – | – | – | – | – | – | – | 35 | 0.111 | 51 | 0.084 | O=c1cc(CO)occ1O [Kojic acid, reference compound] | – |
